Experimental findings from patent US20250177367A1, “COMBINATION THERAPIES FOR MODULATION OF LIPID PRODUCTION” (Ohio State Innovation Foundation, priority 2022, published 2025) are described below.

Data set [1] deals with SREBP-1/2 cleavage. The data set can be described thus: Western blot of SREBP cleavage and FASN/SCD1 expression in GBM cells. The data set is classed as cell-based, human. Conditions: for pimozide-stimulated SREBP-1 activation, FASN/SCD1 and ASCT2 expression: with pimozide 5 μM, 24 hr, GBM30, U373 or U251. The protocol:
P, precursor of SREBP; N, N-terminus of SREBP-1. C, C-terminus of SREBP-2.
4 mM glutamine and […] pyruvate.
(§1) Western Blot. Cells were lysed with RIPA buffer containing a protease inhibitor cocktail and phosphatase inhibitors. The proteins were separated on 12% SDS-PAGE, and transferred onto an ECL nitrocellulose membrane (#1620112, Bio-Rad). After blocking for 1.5 hr in 5% non-fat dried milk diluted by Tris-buffered saline containing 0.1% Tween 20, the membranes were incubated with various primary antibodies, followed by appropriate secondary antibodies conjugated to horseradish peroxidase.
(In western blotting, separated proteins are transferred to a membrane and probed.)

Data set [2] concerns SREBP activation. Put plainly: Western blot of GBM30 cells treated with CB-839 with glutamine, glutamate or NH4Cl. The data set is classed as cell-based, human. Conditions: 12 hr. The protocol: as §1
Data set [3] concerns H1299 and U87 cells. Put plainly: Ammonia, glutamate and α-KG levels after GPNA or CB-839. It is filed as cell-based. To be noted: for levels of glutamate, ammonia, and α-KG in cells and in cell culture media: GPNA 5 mM or CB-839 100 nM, 12 hr; for glutamine consumption: H1299 and U87 cells. The protocol:
The results are presented as mean±SEM (n=3). H1299 or U87 cells were cultured in RMPI 1640 or DMEM medium supplemented with 5% FBS for 24 hr. Cells then were washed with PBS once and treated with/without GPNA (5 mM) or CB-839 (100 nM) in the presence of glutamine (4 mM) and glucose (5 mM) under the fresh serum-free RMPI 1640 or DMEM medium for 12 hr before analysis. Cell culture conditions prior to treatment are the same for the subsequent panels unless otherwise stated.
Analysis of Metabolites in Cell Culture Medium. Metabolite levels in culture medium, including glucose, glutamine, lactate, glutamate, and NH4+, were measured using the Nova Bioprofile 100 Plus Bioanalyzer (Nova Biomedical). H1299 (4×105) or U87 (3×105) cells were seeded in 60 mm dish for 24 hr. After the cells were washed with PBS, they were switched to 2.5 ml serum-free medium with glucose (5 mM) and glutamine (4 mM) for 12 hr. The culture or control media (without cultured cells) were centrifuged at 12,000 rpm for 1 min and run on the bioanalyzer. Cell numbers were determined by using a hemocytometer after trypan blue staining. Consumption of glucose and glutamine or production of lactate, glutamate, and NH4+ under each experimental condition was calculated by subtracting their levels in control medium and normalizing to cell numbers.
(§2) Measures of Ammonia Levels in Tissues, Cells and bound to SCAP. To measure ammonia levels in tumors and normal tissues, 10 mg of tissues were collected and lysed through homogenization on ice in the ammonia assay buffer (100 l) from the commercial kit. The lysates were centrifuged at 20,000×g for 5 min at 4° C. and the ammonia levels in the supernatants were measured by the ammonia assay kit following the manufacturer's instructions (#ab83360, Abcam). For measurement of SCAP-bound ammonia, a total of 1.3×10^7 HEK293T cells was seeded in 15 cm dishes for 24 hr. The cells were transfected with GFP, GFP-SCAP wild-type, or D428A mutant together with myc-Insig1 plasmids for 24 hr, and then washed with PBS, followed by addition of fresh DMEM medium containing glucose (5 mM) and NH4Cl (4 mM) for 2 hr in the absence of glutamine. […]

For data set [4], the system named is H1299 cells-derived xenograft. Put plainly: H1299-derived xenograft mouse model treated with CB-839. Conditions: CB-839 30 mg/kg, i.p., twice per day for 3 days. It is filed as in vivo, mice. The protocol:
The treatment started when the tumor size reached 200 mm^3. […] Scale bars, 50 m. The expression levels were quantified by using ImageJ to analyze 4 images per tumor and 3 tumors in each group.
as §2

The subject of data set [5] is U251 cells. The data set can be described thus: Micrographs of U251 cell growth. It is filed as cell-based. To be noted: GSH 3 mM, 48 hr. The protocol:
DON (10 μM) or CB-839 (100 nM) alone or in combination as in (A) in the presence or absence of GSH (3 mM) for 48 hr.
Micrographs show the growth of U251 cells treated with/without pimozide (2, 3 μM), perphenazine (3, 5 μM), GPNA (1 mM), or CB-839 (100 nM). Cells were cultured in 5% FBS full medium for 24 hr. Cells were then washed with PBS twice and treated in 1% FBS with the presence of 5 mM Glucose, 4 mM Glutamine and 1 mM Pyruvate in fresh serum-free medium for 48 hr. Scale bar, 100 μm.

The test system of data set [6] is U251 cells. Put plainly: Confocal imaging of mitochondria and ROS (MitoTracker / CellROX Deep Red). The data set is classed as cell-based. Conditions: GSH 3 mM. The protocol:
ROS levels were quantified in more than 100 cells (mean±SEM). Sp<0.0001. Scale bar, 10 μm.
DON (10 μM) or CB-839 (I00 nM) in combination as in (A) in the presence or absence of PA (palmitate, 20 μM) and OA (oleic acid, 20 μM) and cholesterol (3 μg/ml) for 24 hr.

Data set [7] concerns SREBP-1 and -2 cleavage. Put plainly: SREBP activation by metabolites in H1299 or U87 cells (western blot, IF). The data set is classed as cell-based. To be noted: for SREBP-1 translocation into the nucleus: in the presence of glucose, without glutamine, 12 hr. The protocol: FIG. 1C show the western blot analysis of whole lysates from H1299 or U87 cells after NH4Cl stimulation at the indicated doses for 12 hr. in the presence of glucose (5 mM) under serum-free culture conditions.
Nuclei were stained with DAPI (blue). Scale bars, 10 m. The nuclear intensity of SREBP-1 was quantified over 30 cells by ImageJ (mean±SEM) and shown below. Significance was determined by unpaired Student's t test. *p<0.05, ^sp<0.001, #p<0.0001; N.S. not significant.
Western Blot. Cells were lysed with RIPA buffer containing a protease inhibitor cocktail and phosphatase inhibitors. […] After blocking for 1.5 hr in 5% non-fat dried milk diluted by Tris-buffered saline containing 0.1% Tween 20, the membranes were incubated with various primary antibodies, followed by appropriate secondary antibodies conjugated to horseradish peroxidase.
Immunofluorescence. Cells grown on coverslips were washed with PBS twice and fixed with 4% formaldehyde for 15 min, then permeabilized with 0.1% Triton X-100/PBS for 5 min and blocked by 3% bovine serum albumin for 30 min at room temperature. […] Cells were washed three times with PBS in a dark chamber.

Data set [8] has as its system ASCT2. Put plainly: ASCT2 expression (western blot of membrane extracts, immunofluorescence). The data set is classed as cell-based, human. Conditions: pimozide 5 μM with cholesterol 3 μg/ml, 24 hr. An excerpt: Transferring receptor-1(CD71), an integral membrane protein that mediates the uptake of transferrin-iron complexes, was used as a membrane loading control for ASCT2. […] Nuclei were stained with DAPI (blue).

The subject of data set [9] is normal human astrocytes (NHA). The data set can be described thus: Effect of PMZ on normal human astrocytes. The data set is classed as cell-based. Conditions: doses up to 10 μM, 6 days. The protocol:
Statistical significance was analyzed by one-way ANOVA.

Data set [10] concerns GBM30-derived xenograft. To be noted: mouse, in vivo.
Method: (§3) Mice were implanted with 3×10^6 GBM30 cells in flank. When tumor volume reached to 80 mm^3, pimozide (15, 30, 60 mg/kg/day) or vehicles were administered to mice via intraperitoneal injection for 14 days.
(§4) GBM30 cells were implanted in mice to form tumor same as FIG. 12A. Mice were started treatment when tumor volume reached to ˜80 mm^3 by pimozide (15 mg/kg/day) and fatostatin (25 mg/kg/day) alone or combination for 16 days. The tumors were isolated from mice at day 14 post-treatment and imaged. Data are shown as mean±SD (n=6).
(§5) Data are shown as mean±SD(n=6). Significance was determined by one-way ANOVA with Dunnett's multiple comparisons adjustment. *p<0.002. Tumor diameter was measured using vernier caliper and calculated as V=L×S×S/2 (S refers to short diameter, L means long diameter, V is tumor volume).
(§6) Mice were implanted with 3×10^6 GBM30 cells in flank. When tumor volume reached to ˜80 mm^3, pimozide (15 mg/kg/day), GPNA (50 mg/kg/day), DON (0.2 mg/kg/day), or CB-839 (25 mg/kg/day) alone or in combination were administered to mice via intraperitoneal injection for 14 days.
(§7) Data are shown as mean±SEM (n=6). Significance was determined by one-way ANOVA with Dunnett's multiple comparisons adjustment. *p<0.002.
Data set [11] has as its system GBM30-derived xenograft. The data set can be described thus: GBM30-derived flank xenograft model. To be noted: 60 mg/kg dose.
Method: as §3, §4, §5, §6, §7

The structures appear in SMILES notation. Entries after “also recorded” stand apart in the source; their conditions may differ.

Turning to `O=C(Cc1cccc(OC(F)(F)F)c1)Nc1ccc(CCCCc2nnc(NC(=O)Cc3ccccn3)s2)nn1` [CB-839, telaglenastat], the “pimozide-stimulated SREBP-1 activation, FASN/SCD1 and ASCT2 expression” value in data set [1] is given as “completely abolished”. Besides, the SREBP activation result in [2] (CB-839 200 nM) was “SREBP activation inhibited by CB-839”. Further, in data set [3], the “levels of glutamate, ammonia, and α-KG in cells and in cell culture media” value is recorded as “dramatically reduced”; the glutamine consumption result is “significant reduction”. In addition, the “ammonia levels in tumor tissues” value in data set [4] is “reduction”. Besides, the “SREBP-1 levels in tumors (IHC)” value in data set [4] (vs vehicle) is recorded as “significantly reduced”.

As for `Cl.N[C@@H](CCC(=O)Nc1ccc([N+](=O)[O-])cc1)C(=O)O` [GPNA, gamma-L-Glutamyl-p-nitroanilide Hydrochloride], the “pimozide-stimulated SREBP-1 activation, FASN/SCD1 and ASCT2 expression” value in data set [1] was “completely abolished”. Moreover, in [3], the “levels of glutamate, ammonia, and α-KG in cells and in cell culture media” value is “dramatically reduced”; the glutamine consumption entry is on record as “significant reduction”.

Consider `N[C@@H](CCC(=O)N[C@@H](CS)C(=O)NCC(=O)O)C(=O)O` [GSH], for which the combination-induced cell death result in [5] is “dramatically rescued the combination-induced cell death”. The “combination treatment-elevated ROS level in mitochondria” value in data set [6] is listed as “reduced the combination treatment-elevated ROS level in mitochondria”.

In the case of `N` [ammonia], in data set [1] (NH3·H2O 4 mM, after glutamine absence, GPNA or CB-839), the “restoration of pimozide-stimulated SREBP-1 activation, FASN/SCD1 and ASCT2 expression” value was “fully restored”. In addition, the “restoration of SREBP activation and FASN/SCD1 expression inhibited by CB-839” value in data set [2] (4 mM) was “strongly restore SREBP activation”. Also, the “SREBP-1 and -2 cleavage, FASN and SCD1 expression” value in [7] (in the presence of glucose 5 mM, NH4Cl, serum-free) is “induced SREBP-1 and -2 cleavage; also recorded: dose- and time-dependent”. In addition, in data set [7], the “SREBP-1 translocation into the nucleus” value was “markedly stimulated SREBP-1 translocation into the nucleus”.

Turning to `CC(C)CCC[C@@H](C)[C@H]1CC[C@H]2[C@@H]3CC=C4C[C@@H](O)CC[C@]4(C)[C@H]3CC[C@]12C` [cholesterol], the “pimozide treatment-elevated ASCT2 expression” value in [8] is given as “suppressed”.

`N[C@@H](CCC(=O)O)C(=O)[O-].O.[Na+]` [glutamate, L-Glutamic acid monosodium salt monohydrate]: the “SREBP-1 translocation into the nucleus” value in [7] is “failed to do so”.

In the case of `C[C@H](O)C(=O)[O-].[Na+]` [lactate, sodium L-lactate], the “SREBP-1 translocation into the nucleus” value in data set [7] is “failed to do so”.

Consider `O=c1[nH]c2ccccc2n1C1CCN(CCCC(c2ccc(F)cc2)c2ccc(F)cc2)CC1` [pimozide], for which the “toxic effects on normal human astrocytes” value in data set [9] is “no toxic effects”. Besides, the toxicity in mice entry in data set [10] was “toxic”. Moreover, in [11], the “time of treatment until mice died” value fell in the range of 6 to 8 days.

For `O=C([O-])CCC(=O)C(=O)[O-].[Na+].[Na+]` [α-KG, α-Ketoglutaric acid sodium salt], the “SREBP-1 translocation into the nucleus” value in data set [7] is “failed to do so”.
